From patent EP4803525A1 (Hefei Institute of Pharmaceutical Industry Co., Ltd., priority 2023, dated 2025) come the findings set out here.

Read-outs that look alike come from different tables or passages of the source. Some results are limits rather than exact numbers.

One test deals with T1, PDE4B2 (Homo sapiens, UniProt Q07343).
T1 construct: purchased BPS bioscience
Description: Inhibitory activity against PDE4B enzyme (AMP-Glo detection). The test is classed as biochemical. The procedure:
2.1 Compound preparation and treatment: all compounds were prepared into 50 mM stock solutions using dimethyl sulfoxide.
2.2 Preparation of working stock solution: a) the reference rolipram was serially diluted 3 times with dimethyl sulfoxide starting from 2 mmol, to a total of 10 concentrations. b) 2 mmol of the compound of the present invention was serially diluted three times with dimethyl sulfoxide (DMSO) to a total of 10 concentrations. c) A 200X positive control (2 mM rolipram) and a 200X vector control (100% dimethyl sulfoxide) were prepared. d) The compound plate was centrifuged at 1000 rpm for 1 minute.
• a) An Echo 550 was used to transfer 20 nL of compound dilution to each well of the detection plate. • b) The test plate was sealed and centrifuged at 1000 rpm for 1 minute. • c) 2X PDE4B2 was prepared in frozen PDE detection buffer. • d) 2 µL of 2X PDE4B2 was added to each well of the detection plate (prepared in step b). • e) The test plate was sealed and incubated for 10 minutes under RT conditions. • f) 2X Cyclic-3',5'-AMP was prepared in PDE detection buffer. • g) 2 µl of 2X Cyclic-3',5'-AMP (prepared in step f) was added to each well of the detection plate (prepared in step e) to initiate the reaction. Incubation was performed at room temperature for 60 minutes. • h) 4 µL of AMP-Glo reagent I was added. • i) 8 µL of AMP detection solution was added. Incubation was performed at room temperature for 60 minutes. • k) The RLU signal was read on the Envision 2105 reader.

In another test the target is T2, hERG potassium channel (Homo sapiens, UniProt Q12809).
T2 construct: host or cells: HEK-293
Description: hERG whole-cell patch-clamp test in HEK-293 cells. The format is cell-based. On the procedure: HEK-293 cell line stably expressing hERG potassium channels (purchased from Creacell, catalog number: A-0320) was used. HEK293 cell lines were cultured in DMEM medium containing 10% fetal bovine serum and 0.8 mg/mL G418 at a temperature of 37°C and a carbon dioxide concentration of 5%. For patch-clamp assays, cells were separated using TrypLE™ Express before the assay. 4 × 10^3 cells were seeded onto coverslips and cultured in 24-well plates (final volume: 500 µL). The assays were performed 18 hours later.
Whole-cell patch-clamp test: after whole-cell sealing is achieved, the cell membrane voltage is clamped to -80mV. […] Data was collected every 10 seconds to observe the effect of the drug on hERG tail current. A -50 mV stimulus of 0.5 s was used as the leakage current detection. Experimental data were collected by the EPC-10 amplifier and stored in the software. Once the hERG current recorded in whole cells stabilized, drug administration began. Each drug concentration was administered for 5 minutes (or the current stabilized) before the next concentration was measured.

Setting [1] is: HEK-293 cells stably expressing hERG, whole-cell patch clamp, 0.03-30 µM, read-out: h ERG IC50.

T1 sequence (Q07343 1-564 isoform Q07343-2): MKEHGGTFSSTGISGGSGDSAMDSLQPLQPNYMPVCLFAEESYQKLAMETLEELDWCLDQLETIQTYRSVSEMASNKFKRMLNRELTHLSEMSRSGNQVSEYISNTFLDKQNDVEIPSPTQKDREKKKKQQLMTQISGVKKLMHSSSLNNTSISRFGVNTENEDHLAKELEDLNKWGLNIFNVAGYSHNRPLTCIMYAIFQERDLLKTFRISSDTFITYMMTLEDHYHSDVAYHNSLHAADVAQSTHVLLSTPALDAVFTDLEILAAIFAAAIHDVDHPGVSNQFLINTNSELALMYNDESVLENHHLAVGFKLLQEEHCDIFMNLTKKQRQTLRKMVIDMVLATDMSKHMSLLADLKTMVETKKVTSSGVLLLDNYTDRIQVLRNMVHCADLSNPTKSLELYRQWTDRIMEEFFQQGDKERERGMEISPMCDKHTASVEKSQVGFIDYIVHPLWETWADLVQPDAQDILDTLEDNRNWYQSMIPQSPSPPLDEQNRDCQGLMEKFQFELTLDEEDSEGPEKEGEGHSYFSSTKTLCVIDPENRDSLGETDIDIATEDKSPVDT
T2 sequence (Q12809 whole entry): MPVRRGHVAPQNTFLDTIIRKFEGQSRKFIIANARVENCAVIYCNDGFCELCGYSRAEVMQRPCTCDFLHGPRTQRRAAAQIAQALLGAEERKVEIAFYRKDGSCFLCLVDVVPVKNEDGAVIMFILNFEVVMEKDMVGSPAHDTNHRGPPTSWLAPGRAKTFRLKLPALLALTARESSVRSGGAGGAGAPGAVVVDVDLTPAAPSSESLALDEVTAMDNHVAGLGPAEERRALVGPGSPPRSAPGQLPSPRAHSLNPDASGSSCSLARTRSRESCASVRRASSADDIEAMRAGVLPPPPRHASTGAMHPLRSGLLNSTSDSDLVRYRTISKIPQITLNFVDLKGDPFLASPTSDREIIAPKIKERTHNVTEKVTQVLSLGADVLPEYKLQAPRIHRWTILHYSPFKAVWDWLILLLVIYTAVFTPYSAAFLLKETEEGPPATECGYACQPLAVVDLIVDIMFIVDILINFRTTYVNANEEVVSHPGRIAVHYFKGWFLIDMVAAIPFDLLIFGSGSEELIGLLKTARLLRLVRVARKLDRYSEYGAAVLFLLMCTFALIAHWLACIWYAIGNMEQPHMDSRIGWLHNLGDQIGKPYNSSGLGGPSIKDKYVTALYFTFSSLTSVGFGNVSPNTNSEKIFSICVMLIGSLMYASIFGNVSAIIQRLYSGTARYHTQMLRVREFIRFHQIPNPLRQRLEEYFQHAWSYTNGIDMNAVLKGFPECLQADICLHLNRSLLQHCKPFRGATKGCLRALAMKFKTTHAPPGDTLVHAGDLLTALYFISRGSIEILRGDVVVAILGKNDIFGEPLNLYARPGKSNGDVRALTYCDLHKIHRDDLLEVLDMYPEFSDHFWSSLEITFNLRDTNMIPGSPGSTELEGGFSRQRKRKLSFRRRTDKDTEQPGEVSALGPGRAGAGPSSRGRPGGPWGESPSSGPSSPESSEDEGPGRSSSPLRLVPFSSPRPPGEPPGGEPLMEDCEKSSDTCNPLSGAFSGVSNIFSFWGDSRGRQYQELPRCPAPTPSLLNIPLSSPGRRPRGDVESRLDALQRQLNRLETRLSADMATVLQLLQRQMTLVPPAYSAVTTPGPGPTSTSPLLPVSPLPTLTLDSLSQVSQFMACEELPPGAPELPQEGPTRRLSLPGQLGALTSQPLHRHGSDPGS

Turning to `O=C(O)Cc1ccc(Nc2nc(N3CCC(c4ncc(Cl)cn4)CC3)nc3c2S(=O)(=O)CCC3)cc1Cl` [Example 21, 2-(2-chloro-4-((2-(4-(5-chloropyrimidin-2-yl)piperidin-1-yl)-5,5-dioxo-7,8-dihydro-6H -thiapyrano[3,2-d]pyrimidin-4-yl)amino)phenyl)acetic acid], the values for the IC50 against PDE4B2 and at hERG potassium channel (setting [1]) were 1 to 20 nM and greater than 30000 nM, respectively.

Take `O=C(O)Cc1ccc(Nc2nc(N3CC=C(c4ncc(Cl)cn4)CC3)nc3c2[S+]([O-])CC3)cc1F` (stereo not drawn) [Example 14, 2-(4-((2-(4-(5-chloropyrimidin-2-yl)-3,6-dihydropyridin-1(2H)-yl)-5-oxo-6,7-dihydrothiopheno[3,2-d]pyrimidin-4-yl)amino)-2-fluorophenyl)acetic acid]: the IC50 at hERG potassium channel (setting [1]) was greater than 30000 nM.

`O=C(O)C1(c2ccc(Nc3nc(N4CCC(c5ncc(Cl)cn5)CC4)nc4c3S(=O)(=O)CCC4)cc2F)CC1` [Example 23, 1-(4-((2-(4-(5-chloropyrimidin-2-yl)piperidin-1-yl)-5,5-dioxo-7,8-dihydro-6H-thiapyrano[3,2-d]pyrimidin-4-yl)amino)-2-fluorophenyl)cyclopropane-1-carboxylic acid]: the IC50 against PDE4B2 lay in the range of 1 to 20 nM.

Regarding `[O-][S+]1CCc2nc(N3CCN(Cc4ncc(Cl)cn4)CC3)nc(NC3(CO)CCC3)c21` (stereo not drawn) [Example 2, 2-(4-((S-chloropyrimidin-2-yl)methyl)piperazin-1-yl)-4-((1-(hydroxymethyl)cyclobutyl)amino)-6,7-dihydrothiopheno[3,2-d]pyrimidine 5-oxide], the figures for the IC50 against PDE4B2 and on hERG potassium channel (setting [1]) were 20 to 100 nM and greater than 30000 nM, respectively.

`CC(C)(C)CNC(=O)Cc1ccc(Nc2nc(N3CCC(c4ncc(Cl)cn4)CC3)nc3c2S(=O)(=O)CCC3)cc1F` [Example 24, 2-(4-((2-(4-(5-chloropyrimidin-2-yl)piperidin-1-yl)-5,5-dioxo-7,8-dihydro-6H -thiapyrano[3,2-d]pyrimidin-4-yl)amino)-2-fluorophenyl) -N-neopentylacetamide] showed an IC50 against hERG potassium channel greater than 30000 nM.

For the compound `O=C(c1ncc(Cl)cn1)N1CCN(c2nc3c(c(NC4(CO)CCC4)n2)[S+]([O-])CC3)CC1` (stereo not drawn) [Example 3, (5-chloropyrimidin-2-yl)(4-(4-((1-(hydroxymethyl)cyclobutyl)amino)-5-oxo-6,7-dihydrothieno[3,2-d]pyrimidin-2-yl)piperazin-1-yl)methanone], the IC50 on hERG potassium channel (setting [1]) was greater than 30000 nM.

Consider `O=C(O)Cc1ccc(Nc2nc(N3CC=C(c4ncc(Cl)cn4)CC3)nc3c2S(=O)(=O)CCC3)cc1F` [Example 18, 2-(4-((2-(4-(5-chloropyrimidin-2-yl)-3,6-dihydropyridin-1(2H)-yl)-5,5-dioxo-7,8-dihydro-6H -thiapyrano[3,2-d]pyrimidin-4-yl)amino)-2-fluorophenyl)acetic acid], for which, at PDE4B2, the IC50 is less than 1 nM.

With `Cc1ccc(O)c(C(=O)NC2CCN(c3nc4c(c(NC5(CO)CCC5)n3)[S+]([O-])CC4)CC2)c1` (stereo not drawn) [Example 7, 2-hydroxyl-N-(1-(4-((1-(hydroxymethyl)cyclobutyl)amino)-5-oxo-6,7-dihydrothiapheno[3,2-d]pyrimidin-2-yl)piperidin-4-yl)-5-methylbenzamide], the IC50 is 1 to 20 nM against PDE4B2 and greater than 30000 nM at hERG potassium channel (setting [1]).

With `O=C(O)C1(c2ccc(Nc3nc(N4CC=C(c5ncc(Cl)cn5)CC4)nc4c3S(=O)(=O)CCC4)cc2F)CCC1` [Example 26, 1-(4-((2-(4-(5-chloropyrimidin-2-yl)-3,6-dihydropyridin-1(2H)-yl)-5,5-dioxo-7,8-dihydro-6H -thiapyrano[3,2-d]pyrimidin-4-yl)amino)-2-fluorophenyl)cyclobutane-1-carboxylic acid], the IC50 on hERG potassium channel (setting [1]) is greater than 30000 nM.

Turning to `O=C(O)Cc1ccc(Nc2nc(N3CCN(c4ncc(Cl)cn4)CC3)nc3c2S(=O)(=O)CCC3)cc1F` [Example 27, 2-(4-((2-(4-(5-chloropyrimidin-2-yl)piperazin-1-yl)-5,5-dioxo-7,8-dihydro-6H -thiapyrano[3,2-d]pyrimidin-4-yl)amino)-2-fluorophenyl)acetic acid], the IC50 at PDE4B2 was 1 to 20 nM.

In the case of `O=S1(=O)CCc2nc(N3CCC(c4ncc(Cl)cn4)CC3)nc(NC3(CO)CCC3)c21` [Example 4], the IC50 at PDE4B2 was 20 to 100 nM; at hERG potassium channel (setting [1]) it was greater than 30000 nM.

Take `[O-][S+]1CCc2nc(N3CC=C(c4ncc(Cl)cn4)CC3)nc(NC3(CO)CCC3)c21` (stereo not drawn) [Example 1, 2-(4-(5-chloropyrimidin-2-yl)-3,6-dihydropyridin-1(2H)-yl)-4-((1-(hydroxymethyl)cyclobutyl)amino)-6,7-dihydrothiopheno[3,2-d]pyrimidine-5-oxide]: the IC50 at hERG potassium channel (setting [1]) worked out at 14500 nM.

`[O-][S+]1CCc2nc(N3CC4(CN(c5ncc(Cl)cn5)C4)C3)nc(NC3(CO)CCC3)c21` (stereo not drawn) [Example 8]: the results for the IC50 on PDE4B2 and on hERG potassium channel (setting [1]) were 20 to 100 nM and greater than 30000 nM, respectively.

`O=C(O)Cc1c(F)cc(Nc2nc(N3CCC(c4ncc(Cl)cn4)CC3)nc3c2S(=O)(=O)CCC3)cc1F` [Example 22, 2-(4-((2-(4-(5-chloropyrimidin-2-yl)piperidin-1-yl)-5,5-dioxo-7,8-dihydro-6H -thiapyrano[3,2-d]pyrimidin-4-yl)amino)-2,6-difluorophenyl)acetic acid]: the IC50 on PDE4B2 was 1 to 20 nM; at hERG potassium channel (setting [1]) it was greater than 30000 nM.

On PDE4B2, `O=C(O)C1(c2ccc(Nc3nc(N4CCC(c5ncc(Cl)cn5)CC4)nc4c3S(=O)(=O)CCC4)cc2F)CCC1` [Example 25, 1-(4-((2-(4-(5-chloropyrimidin-2-yl)piperidin-1-yl)-5,5-dioxo-7,8-dihydro-6H -thiapyrano[3,2-d]pyrimidin-4-yl)amino)-2-fluorophenyl)cyclobutane-1-carboxylic acid] came in with an IC50 of 1 to 20 nM.
